Structure (SMILES) | melting point [°C]
O=C1NC(Cc2ccc(OCc3ccccc3)cn2)C(=O)NC1Cc1ccc(OCc2ccccc2)cn1 (centres unmarked) [Compound 13, 3,6-di[(5-benzyloxypyridin-2-yl)methyl]piperazine-2,5-dione] | 228 to 231
O=c1[nH]c(=Cc2ccc(OCc3ccccc3)cn2)c(=O)[nH]c1=Cc1ccc(OCc2ccccc2)cn1 [Compound 10, 3,6-di[(5-phenylmethoxypyridin-2-yl)methylidene]piperazine-2,5-dione] | 283 to 328
O=c1[nH]c(=Cc2ccc(OCc3ccccc3)cn2)c(=O)[nH]c1=Cc1ccccn1 [Compound 9, 3-[(5-benzyloxypyridin-2-yl)methylidene]-6-[(2-pyridinyl)methylidene]piperazine-2,5-dione] | 248 to 250
O=c1[nH]c(=Cc2ccco2)c(=O)[nH]c1=Cc1ccc(OCc2ccccc2)cn1 [Compound 7, 3-[(5-benzyloxypyridin-2-yl)methylidene]-6-[(furan-2-yl)methylidene]piperazine-2,5-dione] | 256 to 257
CC(=O)N1CC(=O)NC(Cc2ccc(OCc3ccccc3)cn2)C1=O (centres unmarked) [Compound 12, 1-acetyl-3-[(5-benzyloxypyridin-2-yl)methyl]piperazine-2,5-dione] | 215 to 216

Reference: US6635649B2, “Piperazinedione compounds” (priority 2000, dated 2003)
